Where “and” joins values, the source holds several entries; their conditions need not be identical. Equal values may be shown once.
Columns and labels:
[1] = tested on: mice, CFA model of inflammatory pain; assay: CFA model, elevated plus maze; assay type: in vivo, mouse
[2] = tested on: mice, spared nerve injury (SNI) model; assay: Single exposure place preference (sePP), SNI mice; assay type: in vivo, mouse; parameters: time spent in the paired compartment, individual mice: reference not given here
Procedure: Single exposure place preference.
Initial perception of the drugs was measured by single exposure place preference experiments performed in an elongated three compartment apparatus (67.5 cm x 24 cm) with a biased design of different floor textures and wall patterns and a neutral zone in the middle. We have […]
compartment and that a single exposure of psychostimulants in the grey compartment sufficiently changes the preference towards that compartment (9-11). For further details of the setup, we refer to (10). Experiments lasted three days with exposure sessions on days one and two and a preference test on day three. […]
Mice were left in Med-Associates square behavioral chambers (27 cm x 27 cm) to freely roam around for 60 min, four days in a row. […] On day three, both control and SNI mice were placed directly in the chambers and recorded for 60 min. On day four, control mice were injected s.c. with PBS, and SNI mice were injected with either 10 μmol/kg mPD5 or PBS immediately before being placed in the chambers and recorded for 60 min. The recordings were analyzed using the Avisoft SASLab Pro software (Version 5.02.07, Avisoft Bioacoustics) as described in (12), applying a fast fourier transformation (FFT) (1024 FTT length, 100% frame size, Blackman window, and 87.5% time window overlap). […]

[3] = Stability of mPD5 in PBS, 30 days at 5 °C and 25 °C, HPLC-UV-MS
Procedure: SUPPORTING INFORMATION: Method Section.
Sex as a biological variable.
All peptides were ordered from WuXI AppTec (Shanghai, China) or TAG-Copenhagen […]
Assessment of solubility and stability of mPD5.
Solubility was determined by visual inspection of samples dissolved in increasing concentration in 10 mM PBS as judged by full transparency and monophasic appearance.
Stability was addressed by […] for four concentrations (2, 20, 50, and 200 µM), by leaving mPD5 in PBS at 5 °C and 25 °C for 30 days followed by HPLC-UV-MS. […]
Superdex200 Increase 10/300.

[4] = target: human serum albumin (HSA) (Homo sapiens, UniProt P02768); assay: FIDA binding to human serum albumin
Sequence of human serum albumin (HSA) (P02768 25-609): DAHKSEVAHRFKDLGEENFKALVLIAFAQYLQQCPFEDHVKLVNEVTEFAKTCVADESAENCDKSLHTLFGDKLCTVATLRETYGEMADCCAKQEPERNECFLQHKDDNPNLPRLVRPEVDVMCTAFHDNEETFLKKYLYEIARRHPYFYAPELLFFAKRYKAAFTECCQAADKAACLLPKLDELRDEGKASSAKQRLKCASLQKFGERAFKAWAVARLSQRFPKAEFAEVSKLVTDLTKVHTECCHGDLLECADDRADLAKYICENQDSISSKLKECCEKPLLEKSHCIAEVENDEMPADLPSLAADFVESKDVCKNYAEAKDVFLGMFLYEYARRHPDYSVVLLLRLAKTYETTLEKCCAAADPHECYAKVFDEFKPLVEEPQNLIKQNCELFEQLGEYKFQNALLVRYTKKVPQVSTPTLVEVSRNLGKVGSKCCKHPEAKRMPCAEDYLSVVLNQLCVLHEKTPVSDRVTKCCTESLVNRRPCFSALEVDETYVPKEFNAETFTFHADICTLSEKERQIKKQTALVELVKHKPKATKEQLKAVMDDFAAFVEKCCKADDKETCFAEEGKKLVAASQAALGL
Procedure: Flow-induced dispersion analysis (FIDA).
FIDA was carried out using a fluorescently labelled (AF488-NHS) mPD5 analogue, and
(100 nM), using the standard protocol recommended by the manufacturer, in short, mPD5 and
sample was injected into the capillary followed by a buffer injection. The diffusion of the
curve smoothing. Resulting hydrodynamic radius was plotted using GraphPad Prism 8.3.

[5] = 30 days 5°C, nominal conc. 2 μM
[6] = 30 days 5°C, nominal conc. 20 μM
[7] = 30 days 5°C, nominal conc. 50 μM
[8] = 30 days 5°C, nominal conc. 200 μM
[9] = 30 days 25°C, nominal conc. 2 μM
[10] = 30 days 25°C, nominal conc. 20 μM
[11] = 30 days 25°C, nominal conc. 50 μM
[12] = 30 days 25°C, nominal conc. 200 μM

What does the source list for `CCCCCCCCCCCCCC(=O)N(CCOCCOCCC(=O)N[C@@H](Cc1c[nH]cn1)C(=O)N[C@@H](Cc1c[nH]c2ccccc12)C(=O)N[C@@H](CC(C)C)C(=O)N[C@@H](CCCCN)C(=O)N[C@H](C(=O)O)C(C)C)CCOCCOCCC(=O)N[C@@H](Cc1c[nH]cn1)C(=O)N[C@@H](Cc1c[nH]c2ccccc12)C(=O)N[C@@H](CC(C)C)C(=O)N[C@@H](CCCCN)C(=O)N[C@H](C(=O)O)C(C)C` [mPD5, myristoyl-NPEG4-(HWLKV)2]?
time spent in open arms relative to sham, individual mice ([1]; 1 hour after s.c. 10 μmol/kg): 105.738 and 52.6613 and 140.768 and 68.9703 and 55.3027 and 160.227 and 143.859 and 0 and 156.14 and 28.0701 and 63.1578; time spent in the open arms of the elevated plus maze ([1]; s.c. 10 μmol/kg): no longer significantly different from the naive mice; time spent in the paired compartment, individual mice ([2]; SNI mice conditioned with 30 μmol/kg): 0.9648 and 1.369 and 0.722 and 0.8519 and 0.9815 and 0.6715 and 0.5887 and 0.7233 and 1.085 and 1.235 and 0.7664; time spent in the paired chamber compared to PBS (sePP) ([2]; SNI, male mice, s.c. 30 μmol/kg): did not change the time spent in the paired chamber; Measured conc. mPD5 [3, 5]: 0.5 µM; UV-HPLC peak area [3, 5]: 37; pH [3, 5]: 7.37; Measured conc. mPD5 [3, 6]: 17 µM; UV-HPLC peak area [3, 6]: 1196; pH [3, 6]: 7.40; Measured conc. mPD5 [3, 7]: 49 µM; UV-HPLC peak area [3, 7]: 3347; pH [3, 7]: 7.39; Measured conc. mPD5 [3, 8]: 194 µM; UV-HPLC peak area [3, 8]: 6665; pH [3, 8]: 7.37; Measured conc. mPD5 [3, 9]: 0.4 µM; UV-HPLC peak area [3, 9]: 26; pH [3, 9]: 7.37; Measured conc. mPD5 [3, 10]: 17 µM; UV-HPLC peak area [3, 10]: 1161; pH [3, 10]: 7.39; Measured conc. mPD5 [3, 11]: 48 µM; UV-HPLC peak area [3, 11]: 3325; pH [3, 11]: 7.41; Measured conc. mPD5 [3, 12]: 203 µM; UV-HPLC peak area [3, 12]: 7005; pH [3, 12]: 7.36; shelf stability ([3]; PBS, 30 days, 5°C and 25°C): excellent shelf stability; HSA species bound, from RH [4]: binds to dimeric HSA

— paper PMC11530130, “Peripherally restricted PICK1 inhibitor mPD5 ameliorates pain behaviors in murine inflammatory and neuropathic pain models” (JCI Insight, 2024)
